Drawing on US20250236608A1, “EGFR INHIBITORS” (Blueprint Medicines Corporation, priority 2022, published 2025), this text covers IC50 for 18 compounds.

One assay has as its target EGFR (d746-750) (Homo sapiens (Human), UniProt P00533, DEL746-750). Description: Biochemical EGFR inhibition assay, EGFR (d746-750). Particulars: Caliper mobility shift; 1.0 mM ATP or ATP Km; read-out: Enz EGFR_Exon19-del746-750 IC50.
The next assay addresses EGFR L858R (Homo sapiens (Human), UniProt P00533, L858R). Nature of the assay: Biochemical EGFR inhibition assay, EGFR L858R. Particulars: Caliper mobility shift; 1.0 mM ATP or ATP Km; read-out: Enz EGFR_L858R IC50.
Assay [1] has as its target pEGFR (Tyr1068) in PC-9 cells (Ex19Del) (Homo sapiens (Human), UniProt P00533, DEL746-750). Description: PC-9 pEGFR AlphaLISA assay. The format is cell-based. The settings on record: 4 hours incubation, p-EGFR (Tyr1068) AlphaLISA, read-out: Ext pEGFR_PC-9 Ex19Del IC50. The method, boiled down: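 First, cells settled overnight in 10% FBS medium. Second, a 10-point, 4-fold series of test agents was applied for 4 h at 37° C. Third, lysates were probed with AlphaLISA acceptor and donor beads, incubated overnight in the dark. Last, IC50 was taken from the dose-response.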
(In general: In Alpha technology, singlet oxygen from a donor bead excites a nearby acceptor bead.)

Molecules are shown by their SMILES.

EGFR L858R, sequence (P00533 25-1210 L858R): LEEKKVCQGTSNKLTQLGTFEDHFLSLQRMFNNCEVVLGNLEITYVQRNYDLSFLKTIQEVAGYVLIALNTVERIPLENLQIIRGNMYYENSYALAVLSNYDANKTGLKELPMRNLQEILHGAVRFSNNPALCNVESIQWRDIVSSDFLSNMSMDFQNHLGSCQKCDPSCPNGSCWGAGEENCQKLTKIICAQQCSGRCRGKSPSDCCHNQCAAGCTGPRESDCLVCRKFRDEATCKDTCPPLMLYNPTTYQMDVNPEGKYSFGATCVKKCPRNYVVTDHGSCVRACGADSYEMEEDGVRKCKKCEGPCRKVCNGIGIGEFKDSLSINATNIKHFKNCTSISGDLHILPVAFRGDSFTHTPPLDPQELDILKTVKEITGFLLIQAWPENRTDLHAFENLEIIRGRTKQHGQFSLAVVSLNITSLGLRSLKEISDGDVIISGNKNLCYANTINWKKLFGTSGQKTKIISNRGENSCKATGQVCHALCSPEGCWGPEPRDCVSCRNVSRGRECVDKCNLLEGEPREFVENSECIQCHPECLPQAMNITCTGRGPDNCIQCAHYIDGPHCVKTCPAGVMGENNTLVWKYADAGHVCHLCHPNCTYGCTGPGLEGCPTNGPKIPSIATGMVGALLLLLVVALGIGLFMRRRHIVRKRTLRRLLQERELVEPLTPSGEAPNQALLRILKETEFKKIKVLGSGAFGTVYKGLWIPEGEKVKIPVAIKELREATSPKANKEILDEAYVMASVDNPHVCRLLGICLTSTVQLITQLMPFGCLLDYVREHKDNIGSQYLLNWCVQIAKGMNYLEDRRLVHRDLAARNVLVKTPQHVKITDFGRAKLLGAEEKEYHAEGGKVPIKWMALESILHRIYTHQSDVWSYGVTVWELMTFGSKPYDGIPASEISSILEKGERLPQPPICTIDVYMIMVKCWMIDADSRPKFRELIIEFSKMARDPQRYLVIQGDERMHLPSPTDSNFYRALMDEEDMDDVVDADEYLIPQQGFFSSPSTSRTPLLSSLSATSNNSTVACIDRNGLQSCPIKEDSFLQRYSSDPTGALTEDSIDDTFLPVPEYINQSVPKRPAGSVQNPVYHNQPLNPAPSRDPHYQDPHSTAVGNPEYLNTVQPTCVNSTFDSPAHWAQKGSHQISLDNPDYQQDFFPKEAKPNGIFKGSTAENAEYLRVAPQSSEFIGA
pEGFR (Tyr1068) in PC-9 cells (Ex19Del), sequence (P00533 other isoform, or with tags, fused parts or gaps del 746-750): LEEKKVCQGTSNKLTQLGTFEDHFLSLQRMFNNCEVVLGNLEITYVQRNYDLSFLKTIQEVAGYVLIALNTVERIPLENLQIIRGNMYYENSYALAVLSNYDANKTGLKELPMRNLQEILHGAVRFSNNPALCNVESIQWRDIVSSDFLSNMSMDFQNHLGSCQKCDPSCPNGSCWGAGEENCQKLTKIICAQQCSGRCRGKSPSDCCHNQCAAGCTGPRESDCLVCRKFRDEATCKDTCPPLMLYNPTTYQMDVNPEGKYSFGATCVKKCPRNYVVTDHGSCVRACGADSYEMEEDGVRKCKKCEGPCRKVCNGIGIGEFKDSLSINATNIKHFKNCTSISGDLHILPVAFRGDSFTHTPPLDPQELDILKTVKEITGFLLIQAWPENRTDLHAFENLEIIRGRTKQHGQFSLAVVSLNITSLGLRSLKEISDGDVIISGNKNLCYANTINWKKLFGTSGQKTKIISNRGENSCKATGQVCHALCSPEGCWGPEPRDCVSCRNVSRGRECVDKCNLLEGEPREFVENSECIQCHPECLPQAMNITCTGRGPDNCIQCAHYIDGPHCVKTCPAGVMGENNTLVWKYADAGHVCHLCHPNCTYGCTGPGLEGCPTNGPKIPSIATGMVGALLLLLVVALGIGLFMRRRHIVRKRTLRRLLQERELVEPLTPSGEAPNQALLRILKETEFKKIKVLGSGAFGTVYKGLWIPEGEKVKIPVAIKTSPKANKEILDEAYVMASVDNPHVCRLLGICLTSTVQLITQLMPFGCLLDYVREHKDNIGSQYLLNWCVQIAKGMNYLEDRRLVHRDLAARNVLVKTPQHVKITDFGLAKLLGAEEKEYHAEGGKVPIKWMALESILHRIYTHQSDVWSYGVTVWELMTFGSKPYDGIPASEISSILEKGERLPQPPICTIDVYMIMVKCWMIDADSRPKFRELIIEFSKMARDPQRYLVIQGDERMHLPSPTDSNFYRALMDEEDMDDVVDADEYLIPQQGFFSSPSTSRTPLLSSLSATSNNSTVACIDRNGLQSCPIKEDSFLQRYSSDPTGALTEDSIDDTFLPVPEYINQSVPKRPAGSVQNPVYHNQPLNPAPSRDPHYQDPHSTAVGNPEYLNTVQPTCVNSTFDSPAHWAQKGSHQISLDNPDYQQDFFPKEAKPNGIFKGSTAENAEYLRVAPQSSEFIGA
EGFR (d746-750), sequence (P00533 other isoform, or with tags, fused parts or gaps del 1-694/del 746-750 limits assumed): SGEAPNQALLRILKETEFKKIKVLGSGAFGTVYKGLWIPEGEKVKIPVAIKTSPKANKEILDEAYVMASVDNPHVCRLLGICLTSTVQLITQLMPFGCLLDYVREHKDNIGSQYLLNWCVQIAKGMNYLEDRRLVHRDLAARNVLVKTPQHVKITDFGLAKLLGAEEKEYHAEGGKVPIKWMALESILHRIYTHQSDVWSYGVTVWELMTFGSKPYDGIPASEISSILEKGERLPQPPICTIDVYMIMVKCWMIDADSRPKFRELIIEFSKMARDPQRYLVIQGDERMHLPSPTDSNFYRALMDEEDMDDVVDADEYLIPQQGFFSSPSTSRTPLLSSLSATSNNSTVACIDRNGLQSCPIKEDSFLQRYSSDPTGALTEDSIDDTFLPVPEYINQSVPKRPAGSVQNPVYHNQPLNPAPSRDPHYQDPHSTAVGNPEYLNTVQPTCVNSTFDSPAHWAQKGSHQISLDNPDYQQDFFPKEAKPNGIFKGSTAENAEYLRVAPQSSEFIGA

As a reminder, the IC50 is the concentration at which inhibition is half-maximal. For `CCOc1cc2ncnc(-c3cn(C)nc3-c3ccccc3)c2cc1NC(=O)C1CC1` [Example 306, N-(7-ethoxy-4-(1-methyl-3-phenyl-1H-pyrazol-4-yl)quinazolin-6-yl)cyclopropanecarboxamide], the IC50 was determined as 1.1 nM on EGFR (d746-750), 1.4 nM at EGFR L858R and 0.6 nM in assay [1].

With `CCC(=O)Nc1cc2c(-c3cn(C)nc3-c3ccccc3)ncnc2cc1-c1ncccn1` [Example 449, N-(4-(1-methyl-3-phenyl-1H-pyrazol-4-yl)-7-(pyrimidin-2-yl)quinazolin-6-yl)propionamide], the IC50 stood at 0.9 nM at EGFR (d746-750), 1.3 nM on EGFR L858R and 1.9 nM in assay [1].

Consider `COc1cc2ncnc(-c3cn(C)nc3-c3ccccc3F)c2nc1NC(=O)[C@@]12COC[C@@H]1C2` (single isomer, unassigned) [Example 387, (1R,5R)—N-(4-(3-(2-fluorophenyl)-1-methyl-1H-pyrazol-4-yl)-7-methoxypyrido[3,2-d]pyrimidin-6-yl)-3-oxabicyclo[3.1.0]hexane-1-carboxamide or (1S,5S)—N-(4-(3-(2-fluorophenyl)-1-methyl-1H-pyrazol-4-yl)-7-methoxypyrido[3,2-d]pyrimidin-6-yl)-3-oxabicyclo[3.1.0]hexane-1-carboxamide], for which the values for the IC50 (on EGFR (d746-750); at EGFR L858R; in assay [1]) were 0.9 nM, 2 nM and 1.5 nM, respectively.

With `CCn1cc(-c2ncnc3cc(OC)c(OC(=O)N4CCN(C)C[C@@H]4C)cc23)c(-c2ccccc2)n1` [Example 95, 4-(1-ethyl-3-phenyl-1H-pyrazol-4-yl)-7-methoxyquinazolin-6-yl(S)-2,4-dimethylpiperazine-1-carboxylate], the half-maximal inhibitory concentration (IC50) at EGFR (d746-750) was 1.7 nM; at EGFR L858R, 3 nM; in assay [1] it was 2.4 nM.

For `COc1cc2ncnc(-c3cn(C)nc3-c3ccccc3)c2nc1O[C@@H](C)c1cccnc1F` [Example 47, (S)-6-(1-(2-fluoropyridin-3-yl)ethoxy)-7-methoxy-4-(1-methyl-3-phenyl-1H-pyrazol-4-yl)pyrido[3,2-d]pyrimidine], the 50% inhibitory concentration (IC50) was 1.4 nM on EGFR (d746-750), 2.6 nM on EGFR L858R and 2.1 nM in assay [1].

With `COc1cc2ncnc(-c3cn(C)nc3-c3ccccc3)c2cc1NC(=O)[C@H](C)F` (single isomer, unassigned) [Example 244, (S)-2-fluoro-N-(7-methoxy-4-(1-methyl-3-phenyl-1H-pyrazol-4-yl)quinazolin-6-yl) propenamide or (R)-2-fluoro-N-(7-methoxy-4-(1-methyl-3-phenyl-1H-pyrazol-4-yl)quinazolin-6-yl) propenamide], the results for the IC50 (on EGFR (d746-750); on EGFR L858R; in assay [1]) were 1.3 nM, 2.2 nM and 2.3 nM, respectively.

On to `COc1cc2ncnc(-c3cn(C)nc3-c3ccccc3)c2cc1-c1ccc(OC)c2n[nH]cc12` [Example 151, 7-methoxy-6-(7-methoxy-2H-indazol-4-yl)-4-(1-methyl-3-phenyl-1H-pyrazol-4-yl)quinazoline], for which the IC50 on EGFR (d746-750) came out at 1.9 nM; at EGFR L858R, 8.2 nM; in assay [1] it was 8.7 nM.

For `COc1cc2ncnc(-c3cn(C)nc3-c3ccccc3)c2nc1NC(=O)C1(F)CCN(C)C1` (stereo not drawn) [Example 433, 3-fluoro-N-(7-methoxy-4-(1-methyl-3-phenyl-1H-pyrazol-4-yl)pyrido[3,2-d]pyrimidin-6-yl)-1-methylpyrrolidine-3-carboxamide], the half-maximal inhibitory concentration (IC50) came out at 1.6 nM on EGFR (d746-750), 24.9 nM on EGFR L858R and 10.5 nM in assay [1].

Turning to `CCOc1cc2ncnc(-c3cn(C)nc3-c3ccccc3)c2cc1OC` [Example 25, 7-ethoxy-6-methoxy-4-(1-methyl-3-phenyl-1H-pyrazol-4-yl)quinazoline], the IC50 at EGFR (d746-750) came out at 0.9 nM; at EGFR L858R, 1.4 nM; in assay [1] it was 2.1 nM.

On to `COc1cc2ncnc(-c3cn(C(F)F)nc3-c3ccccc3)c2nc1NC(=O)C12CC(C1)C2` [Example 364, N-(4-(1-(difluoromethyl)-3-phenyl-1H-pyrazol-4-yl)-7-methoxypyrido[3,2-d]pyrimidin-6-yl)bicyclo[1.1.1]pentane-1-carboxamide], for which the IC50 on EGFR (d746-750) was determined as 1 nM; at EGFR L858R it was 2.1 nM; in assay [1], 4 nM.

With `COc1cc2ncnc(-c3cn(C)nc3-c3ccccc3)c2cc1OC(=O)N1CCOC[C@@H]1C` [Example 62, 7-methoxy-4-(1-methyl-3-phenyl-1H-pyrazol-4-yl)quinazolin-6-yl (S)-3-methylmorpholine-4-carboxylate], the values for the IC50 (on EGFR (d746-750); on EGFR L858R; in assay [1]) were 2.5 nM, 4.2 nM and 8.7 nM, respectively.

Take `COc1cc2ncnc(-c3cn(C)nc3-c3ccccc3)c2nc1NC(=O)[C@]1(C(F)(F)F)CCCN1C` (single isomer, unassigned) [Example 430, (S)—N-(7-methoxy-4-(1-methyl-3-phenyl-1H-pyrazol-4-yl)pyrido[3,2-d]pyrimidin-6-yl)-1-methyl-2-(trifluoromethyl) pyrrolidine-2-carboxamide or (R)—N-(7-methoxy-4-(1-methyl-3-phenyl-1H-pyrazol-4-yl)pyrido[3,2-d]pyrimidin-6-yl)-1-methyl-2-(trifluoromethyl) pyrrolidine-2-carboxamide]: the IC50 at EGFR (d746-750) amounted to 3.7 nM; on EGFR L858R, 19 nM; in assay [1], 16 nM.

As for `COc1cc2ncnc(-c3sc(C)nc3-c3ccccc3)c2cc1NC(=O)C1CC1` [Example 266, N-(7-methoxy-4-(2-methyl-4-phenylthiazol-5-yl)quinazolin-6-yl)cyclopropanecarboxamide], the IC50 came to 1 nM at EGFR (d746-750), 1.5 nM on EGFR L858R and 4.9 nM in assay [1].

Regarding `COc1cc2ncnc(-c3cn(C)nc3-c3ccccc3)c2cc1O[C@H]1CN(C)C[C@H]1F` [Example 4, 6-(((3S,4R)-4-fluoro-1-methylpyrrolidin-3-yl)oxy)-7-methoxy-4-(1-methyl-3-phenyl-1H-pyrazol-4-yl)quinazoline], the IC50 on EGFR (d746-750) worked out at 2.4 nM; on EGFR L858R it was 4.1 nM; in assay [1], 8.5 nM.

As for `CCOc1cc2ncnc(-c3cn(C)nc3-c3ccccc3)c2cc1CO` [Example 99, (7-ethoxy-4-(1-methyl-3-phenyl-1H-pyrazol-4-yl)quinazolin-6-yl)methanol], the results for the IC50 (on EGFR (d746-750); at EGFR L858R; in assay [1]) were 1.1 nM, 2 nM and 4.2 nM, respectively.

For `COc1cc2ncnc(-c3cn(CCO)nc3-c3ccccc3)c2cc1NC(=O)c1ccccc1F` [Example 264, 2-fluoro-N-(4-(1-(2-hydroxyethyl)-3-phenyl-1H-pyrazol-4-yl)-7-methoxyquinazolin-6-yl)benzamide], the IC50 on EGFR (d746-750) was 0.4 nM; at EGFR L858R, 0.6 nM; in assay [1], 0.3 nM.

In the case of `[2H]C([2H])([2H])N1CCN(C(=O)Oc2cc3c(-c4cn(C)nc4-c4ccccc4)ncnc3cc2OC)[C@@H](C)C1` [Example 93, 7-methoxy-4-(1-methyl-3-phenyl-1H-pyrazol-4-yl)quinazolin-6-yl(S)-2-methyl-4-(methyl-d3) piperazine-1-carboxylate], the half-maximal inhibitory concentration (IC50) at EGFR (d746-750) was found to be 2.5 nM; at EGFR L858R it was 4.3 nM; in assay [1], 4.3 nM.

For the compound `COc1cc2ncnc(-c3cn(C)nc3-c3ccccc3)c2cc1NC(=O)c1scnc1C` [Example 207, N-(7-methoxy-4-(1-methyl-3-phenyl-1H-pyrazol-4-yl)quinazolin-6-yl)-4-methylthiazole-5-carboxamide], the figures for the 50% inhibitory concentration (IC50) (at EGFR (d746-750); on EGFR L858R; in assay [1]) were 0.8 nM, 1.4 nM and 1 nM, respectively.
